Usually Ki stands for the dissociation constant of the complex between target and ligand, obtained from inhibition or displacement. By IC50 is commonly meant the concentration needed to halve the response being measured. Higher therefore signals weaker potency in that assay.

Assay [1] deals with T1, thrombin (Homo sapiens, UniProt P00734). Put plainly: Kinetic amidolytic assay with chromogenic substrate S-2238 (inhibition constants). It is filed as biochemical. Conditions: 25° C., S-2238, clotting buffer; read-out: KI, nM (25° C.). The method, then:
(§1) Peptides were freeze-dried and their identity was confirmed by ion-spray mass spectrometry. Clotting assays were carried out by use of the protocols described previously (DiMaio and others, 1990, 21698-21703; Witting and others, 1992, 737-743). The assay employs bovine plasma fibrinogen dissolved at 0.1% in 50 mM Tris-Cl, 100 mM NaCl, 0.1% PEG-8000 at pH 7.6 (i.e. the clotting buffer). Each assay mixture contained a certain concentration of the peptide, and the reaction was started by the addition of human thrombin to a final concentration of 0.6-1.2 nM. Optical absorbance increase at 420 nm caused by fibrin clot formation was measured at 25° C. or 37° C. using the Spectramax plate reader. The onset clotting time was determined as an intersection of the baseline and the extrapolated linear portion of the OD change curve. The concentration of a peptide needed to double the clotting time was defined as IC50 (DiMaio and others, 1990, 21698-21703). Kinetic amidolytic curves were obtained in clotting buffer at 25° C. using eight inhibitor concentrations and three to five concentrations of the chromogenic substrate S-2238 (Chromogenix) (DiMaio and others, 1990, 21698-21703). Inhibition constants were extracted from Lineweaver-Burk equation by using weighted linear regression. Errors in Ki determination were estimated by using Monte-Carlo sampling with 1-3% variance of the experimental points. Peptide concentrations were determined spectrophotometrically using predicted extinction coefficients at 278 nm (Gill and von Hippel, 1989, 319-326).

The target in assay [2] is T1, thrombin. Put plainly: Fibrinogen clotting assay catalyzed by thrombin. The class given is biochemical. Conditions: concentration needed to double the clotting time. As to the method:
Curves represent OD420 time course after the addition of 0.6 nM thrombin in the presence of (♦) 0 nM; (◯) 0.5 nM; (□) 1 nM; (Δ) 1.5 nM; (⋄) 2.5 nM; (●) 3.75 nM; (▪) 6.25 nM; and (▴) […] of the inhibitor with linker (GS)n and n=2 (SEQ. ID. NO. 50) (a); n=4 (SEQ. ID. NO. 51) (b); n=6 (SEQ. ID. NO. 52) (c); n=8 (SEQ. ID. NO. 53) (d); n=10 (SEQ. ID. NO. 54) (e); and in the presence of (♦) 0 nM; (◯) 1 nM; (□) 2 nM; (Δ) 4 nM; (⋄) 6 nM; (●) 10 nM; (▪) 15 nM; and (▴) 25 nM of the inhibitor with linker (GS)n and n=12 (SEQ. ID. NO. 55) (f); n=14 (SEQ. ID. NO. 56) (g), at 37° C. The onset clotting time was determined as an intersection of the baseline and the extrapolated linear portion of the OD change curve. […] Curves (i) represent OD420 time course in the presence of (A) 0 nM; (◯) 1 nM; (□) 2 nM; (Δ) 4 nM; (⋄) 6 nM; and (●) 15 nM of the inhibitor with linker […] (SEQ. ID. NO. 103), at 37° C. […] represent OD420 time course in the presence of (◯) 0 nM; (□) 2 nM; (Δ) 4 nM; (⋄) 6 nM; (●) 8 nM; (▪) 10 nM; (▴) 12 nM; and (♦) 15 nM; of the inhibitor with linker […] (SEQ. ID. NO. 58) at 25° C. Curves (k) represent OD420 time course in the presence of (◯) 0 nM; (□) 0.5 nM; (Δ) 1 nM; (⋄) 2 nM; (●) 3 nM; (▪) 4 nM; (▴) 5 nM; and (♦) 6 nM; of the inhibitor with linker […] (SEQ. ID. NO. 105) at 37° C. Curves (I) represent OD420 time course in the presence of (◯) 0 nM; (□) 0.25 nM; (Δ) 0.5 nM; (⋄) 1 nM; (●) 1.5 nM; (▪) 2 nM; and (▴) 2.5 nM; of the inhibitor with linker […] (SEQ. ID. NO. 104) at 37° C. Curves (m) represent OD420 time course in the presence of (◯) 0 nM; (□) 2 nM; (Δ) 4 nM; (⋄) 6 nM; (●) 8 nM; (▴) 10 nM; and (A) 12 nM; of the inhibitor with linker […] (SEQ. ID. NO. 106) at 37° C. Curves (n) represent OD420 time course in the presence of (◯) 0 nM; (□) 1 nM; (Δ) 2 nM; (⋄) 3 nM; (●) 4 nM; (▪) 5 nM; (▴) 6 nM; and (♦) 7 nM; of the inhibitor with linker […] (SEQ. ID. NO. 107) at 37° C. Curves (o) represent OD420 time course in the presence of (◯) 0 nM; (□) 4 nM; and (Δ) 8 nM; of the inhibitor with linker GQSHNR (SEQ. ID. NO. 108) at 37° C.
Other experimental conditions were as used for the assays described in FIG. 2.
as §1, with “Clotting” for “Peptides were freeze-dried and their identity was confirmed by ion-spray mass spectrometry. Clotting”, “points.” for “points. Peptide concentrations were determined spectrophotometrically using predicted extinction coefficients at 278 nm (Gill and von Hippel, 1989, 319-326).”

For the compound `CC[C@H](C)[C@H](NC(=O)[C@H](CCC(=O)O)NC(=O)[C@H](CCC(=O)O)NC(=O)[C@H](Cc1ccccc1)NC(=O)[C@H](CC(=O)O)NC(=O)CNC(=O)[C@H](CO)NC(=O)CNC(=O)[C@H](CO)NC(=O)CNC(=O)[C@H](CO)NC(=O)CNC(=O)[C@H](CO)NC(=O)CNC(=O)[C@H](CO)NC(=O)CNC(=O)[C@H](CO)NC(=O)CNC(=O)[C@H]1CCCCN1C(=O)[C@H](CCCNC(=N)N)NS(=O)(=O)c1ccc(C(C)(C)C)cc1)C(=O)N1CCC[C@H]1C(=O)N[C@@H](CCC(=O)O)C(=O)N[C@@H](CCC(=O)O)C(=O)N[C@@H](Cc1ccc(O)cc1)C(=O)N[C@@H](CC(C)C)C(=O)N[C@@H](CCC(N)=O)C(=O)O` [P3151], the Ki in assay [1] is 0.6 ± 0.1 nM. Besides, the IC50 in assay [2] (IC50, nM (37° C.), 37° C.) stood at 0.5 ± 0.1 nM.

Turning to `CC[C@H](C)[C@H](NC(=O)[C@H](CCC(=O)O)NC(=O)[C@H](CCC(=O)O)NC(=O)[C@H](Cc1ccccc1)NC(=O)[C@H](CC(=O)O)NC(=O)CNC(=O)[C@H](CO)NC(=O)CNC(=O)[C@H](CO)NC(=O)CNC(=O)[C@H](CO)NC(=O)CNC(=O)[C@H](CO)NC(=O)CNC(=O)[C@H](CO)NC(=O)CNC(=O)[C@H](CO)NC(=O)CNC(=O)[C@H](CO)NC(=O)CNC(=O)[C@H](CO)NC(=O)CNC(=O)[C@H](CO)NC(=O)CNC(=O)[C@H](CO)NC(=O)CNC(=O)[C@H]1CCCCN1C(=O)[C@H](CCCNC(=N)N)NS(=O)(=O)c1ccc(C(C)(C)C)cc1)C(=O)N1CCC[C@H]1C(=O)N[C@@H](CCC(=O)O)C(=O)N[C@@H](CCC(=O)O)C(=O)N[C@@H](Cc1ccc(O)cc1)C(=O)N[C@@H](CC(C)C)C(=O)N[C@@H](CCC(N)=O)C(=O)O` [P3153], in assay [1], the Ki stood at 2 ± 0.3 nM. Also, in assay [2] (IC50, nM (37° C.), 37° C.), inhibition was half-maximal at 1 ± 0.1 nM (IC50).

Turning to `CC[C@H](C)[C@H](NC(=O)[C@H](CCC(=O)O)NC(=O)[C@H](CCC(=O)O)NC(=O)[C@H](Cc1ccccc1)NC(=O)[C@H](CC(=O)O)NC(=O)CNC(=O)[C@H](CO)NC(=O)CNC(=O)[C@H](CO)NC(=O)CNC(=O)[C@H](CO)NC(=O)CNC(=O)[C@H](CO)NC(=O)CNC(=O)[C@H](CO)NC(=O)CNC(=O)[C@H](CO)NC(=O)CNC(=O)[C@H](CO)NC(=O)CNC(=O)[C@H](CO)NC(=O)CNC(=O)[C@H](CO)NC(=O)CNC(=O)[C@H](CO)NC(=O)CNC(=O)[C@H](CO)NC(=O)CNC(=O)[C@H](CO)NC(=O)CNC(=O)[C@H](CO)NC(=O)CNC(=O)[C@H](CO)NC(=O)CNC(=O)[C@H]1CCCCN1C(=O)[C@H](CCCNC(=N)N)NS(=O)(=O)c1ccc(C(C)(C)C)cc1)C(=O)N1CCC[C@H]1C(=O)N[C@@H](CCC(=O)O)C(=O)N[C@@H](CCC(=O)O)C(=O)N[C@@H](Cc1ccc(O)cc1)C(=O)N[C@@H](CC(C)C)C(=O)N[C@@H](CCC(N)=O)C(=O)O` [P3159], the Ki in assay [1] was 6.7 ± 1.9 nM. This compound also showed an IC50 in assay [2] (IC50, nM (37° C.), 37° C.) of 3.5 ± 0.2 nM.

With `CC[C@H](C)[C@H](NC(=O)[C@H](CCC(=O)O)NC(=O)[C@H](CCC(=O)O)NC(=O)[C@H](Cc1ccccc1)NC(=O)[C@H](CC(=O)O)NC(=O)CNC(=O)[C@H](CO)NC(=O)CNC(=O)[C@H](CO)NC(=O)CNC(=O)[C@H](CO)NC(=O)CNC(=O)[C@H](CO)NC(=O)CNC(=O)[C@H](CO)NC(=O)CNC(=O)[C@H](CO)NC(=O)CNC(=O)[C@H](CO)NC(=O)CNC(=O)[C@H](CO)NC(=O)CNC(=O)[C@H](CO)NC(=O)CNC(=O)[C@H](CO)NC(=O)CNC(=O)[C@H](CO)NC(=O)CNC(=O)[C@H](CO)NC(=O)CNC(=O)[C@H]1CCCCN1C(=O)[C@H](CCCNC(=N)N)NS(=O)(=O)c1ccc(C(C)(C)C)cc1)C(=O)N1CCC[C@H]1C(=O)N[C@@H](CCC(=O)O)C(=O)N[C@@H](CCC(=O)O)C(=O)N[C@@H](Cc1ccc(O)cc1)C(=O)N[C@@H](CC(C)C)C(=O)N[C@@H](CCC(N)=O)C(=O)O` [P3160], in assay [1], the Ki came to 4.6 ± 0.8 nM. For the same compound, half-maximal inhibition in assay [2] (IC50, nM (37° C.), 37° C.) (IC50) was put at 2.8 ± 0.1 nM.

On to `CC[C@H](C)[C@H](NC(=O)[C@H](CCC(=O)O)NC(=O)[C@H](CCC(=O)O)NC(=O)[C@H](Cc1ccccc1)NC(=O)[C@H](CC(=O)O)NC(=O)CNC(=O)[C@H](CO)NC(=O)[C@@H](NC(=O)[C@H](CCCCN)NC(=O)[C@H](CCC(=O)O)NC(=O)[C@H](Cc1ccc(O)cc1)NC(=O)[C@H](Cc1c[nH]cn1)NC(=O)[C@@H]1CCCN1C(=O)[C@H](CO)NC(=O)CNC(=O)[C@H]1CCCCN1C(=O)[C@H](CCCNC(=N)N)NS(=O)(=O)c1ccc(C(C)(C)C)cc1)C(C)C)C(=O)N1CCC[C@H]1C(=O)N[C@@H](CCC(=O)O)C(=O)N[C@@H](CCC(=O)O)C(=O)N[C@@H](Cc1ccc(O)cc1)C(=O)N[C@@H](CC(C)C)C(=O)N[C@@H](CCC(N)=O)C(=O)O` [P3169], for which, in assay [1], the Ki worked out at 1 ± 0.2 nM. Besides, in assay [2] (IC50, nM (25° C.), 25° C.), the IC50 stood at 0.4 nM.

Regarding `CC[C@H](C)[C@H](NC(=O)[C@H](CCC(=O)O)NC(=O)[C@H](CCC(=O)O)NC(=O)[C@H](Cc1ccccc1)NC(=O)[C@H](CC(=O)O)NC(=O)CNC(=O)[C@H](CO)NC(=O)[C@@H](NC(=O)[C@H](CCCCN)NC(=O)[C@H](CCC(=O)O)NC(=O)[C@H](Cc1ccc(OP(=O)(O)O)cc1)NC(=O)[C@H](Cc1c[nH]cn1)NC(=O)[C@@H]1CCCN1C(=O)[C@H](CO)NC(=O)CNC(=O)[C@H]1CCCCN1C(=O)[C@H](CCCNC(=N)N)NS(=O)(=O)c1ccc(C(C)(C)C)cc1)C(C)C)C(=O)N1CCC[C@H]1C(=O)N[C@@H](CCC(=O)O)C(=O)N[C@@H](CCC(=O)O)C(=O)N[C@@H](Cc1ccc(O)cc1)C(=O)N[C@@H](CC(C)C)C(=O)N[C@@H](CCC(N)=O)C(=O)O` [P3170], the Ki in assay [1] was 1.5 ± 0.4 nM. This compound came in with an IC50 in assay [2] (IC50, nM (25° C.), 25° C.) of 0.7 nM.

For the origin of these results see patent US8063018B2, “Bivalent thrombin binding molecules comprising linkers” (National Research Council of Canada, priority 2004, dated 2011).
